Columns and labels:
Assay type in all cases: cell-based
ovary (Ovcar-3) = assay: Cell viability (ATP luminescence) IC50 determination, Ovcar-3; conditions: Homo sapiens, Ovcar-3 cells, 72 hours incubation, vs DMSO vehicle control
Description: (§1) In yet another aspect of the instant invention, the IC50 or the half maximal inhibitory concentration of the candidate compounds were determined to assess drug potency and potential dosing regimens for in vivo use. One of ordinary skill in the art is readily able to ascertain such information using commonly known methodologies. As it has been well described in the art, IC50 represents and measures how much of a particular substance/molecule is needed to inhibit some biological process by 50%. In the instant case, the IC50 of the candidate compounds were determined as the concentration that led to a response of 50% compared to the vehicle control cells.
(§2) The cell lines listed are maintained at approximately 5% CO2, 37° C., 95% relative humidity in the media appropriate for that cell line. The cells are sub-cultured every two to three days and plated in clear bottom 96-well plates at a density of 1×10^4 cells/well and incubated at ca. 5% CO2, 37° C. overnight prior to initiation of the assay. To begin cell viability assays, the media in the cell plate (100 μL) is replaced with fresh media (100 μL). The test articles are serially diluted […] in fresh media in duplicate and added to the cells (100 μL) at final sample concentrations of 0.46, 1.37, 4.12, 12.35, 37.04, 111.1, 333.3 and 1000 μM (≤1% DMSO) in a total volume of 200 μL. Wells containing no cells and wells containing cells lysed with 0.1% Triton-X are used for baseline controls. Tamoxifen is used as a known control for each assay and DMSO only will be run as vehicle control. The samples are incubated at ca. 37° C. in humidified 5% CO2 atmosphere for 72 hours. The plate is monitored once a day during the incubation period, paying special attention to the level of confluence. If the cells approach confluence prior to the end of the 72 hour incubation period, the experiment is terminated and cell viability measured as described below.
(§3) Cell viability is determined using a commercially available kit to determine ATP levels by luminescence. Briefly, the cell plate has the media removed and replaced with 100 μL of fresh media, and the buffer and lyophilized substrate are equilibrated to room temperature. The buffer is used to reconstitute the substrate just prior to addition to the wells of the cell plate (100 μL per well). The plate is placed into the Infinite M200 plate reader, allowed to shake for 10 minutes followed by a 10 minute wait period. The plate is then read using an integration time of 0.5 sec with no attenuation.
(§4) The mean baseline controls (wells with Triton X-100 or no cells) are subtracted from the total luminescence to give the net luminescence for that well. This total is compared to the control of DMSO only. An IC50 is calculated as the concentration that led to a response of 50% compared to the vehicle control cells.

Pancreas (Capan-1) = assay: Cell viability (ATP luminescence) IC50 determination, Capan-1; conditions: Homo sapiens, Capan-1 cells, 72 hours incubation, vs DMSO vehicle control
Description: as §1, §2, §3, §4

lung (A549) = assay: Cell viability (ATP luminescence) IC50 determination, A549; conditions: Homo sapiens, A549 cells, 72 hours incubation, vs DMSO vehicle control
Description: as §1, §2, §3, §4

[1] = tested on: cells lines derived from breast, lung, colon, prostate, endometrial and ovarian cancers; assay: In vitro studies of tumor cell growth inhibition in cancer cell lines; conditions: CYP19 positive (MDA-MB-213 and SK-OV-3) vs CYP19 negative (MCF-7 and NIH:OVCAR-3), where it is reduced

Compound: COC[C@H]1C[C@@H]2[C@H](CC[C@]3(C)C(O)CC[C@@H]23)c2ccc(O)cc21 (stereo partly drawn) [Compound 3, (6S,8R,9S,13S,14S)-6-(methoxymethyl)-13-methyl-7,8,9,11,12,13,14,15,16,17-decahydro-6H-cyclopenta[a]phenanthrene-3,17-diol]
- IC50 (ovary (Ovcar-3)): 94 µM
- IC50 (Pancreas (Capan-1)): 168 µM
- IC50 (lung (A549)): 84 µM

Compound: COC[C@@H]1C[C@@H]2[C@H](CC[C@]3(C)C(O)CC[C@@H]23)c2ccc(O)cc21 (stereo partly drawn) [Compound 4, (6R,8R,9S,13S,14S)-6-(methoxymethyl)-13-methyl-7,8,9,11,12,13,14,15,16,17-decahydro-6H-cyclopenta[a]phenanthrene-3,17-diol]
- IC50 (ovary (Ovcar-3)): 100 µM
- IC50 (Pancreas (Capan-1)): 32 µM
- IC50 (lung (A549)): 70 µM

Compound: C[C@]12CC[C@@H]3c4ccc(O)cc4[C@H](CO)C[C@H]3[C@@H]1CCC2O (stereo partly drawn) [Compound 8, (6R,8R,9S,13S,14S)-6-(hydroxymethyl)-13-methyl-7,8,9,11,12,13,14,15,16,17-decahydro-6H-cyclopenta[a]phenanthrene-3,17-diol]
- IC50 (ovary (Ovcar-3)): 221 µM
- IC50 (Pancreas (Capan-1)): 212 µM
- IC50 (lung (A549)): 184 µM

Compound: COC[C@@H]1C[C@@H]2[C@H](CC[C@]3(C)C(O)CC[C@@H]23)[C@@]2(C)CCC(O)CC12 (stereo partly drawn) [Compound 9, (6R,8R,9S,10R,13S,14S)-6-(methoxymethyl)-10,13-dimethylhexadecahydro-1H-cyclopenta[a]phenanthrene-3,17-diol]
- IC50 (ovary (Ovcar-3)): > 1000 µM
- IC50 (Pancreas (Capan-1)): > 1000 µM
- IC50 (lung (A549)): > 1000 µM

Compound: C[C@]12CC[C@@H]3c4ccc(O)cc4[C@H](CON)C[C@H]3[C@@H]1CCC2O (stereo partly drawn) [Compound 10, (6R,8R,9S,13S,14S)-6-((aminooxy)methyl)-13-methyl-7,8,9,11,12,13,14,15,16,17-decahydro-6H-cyclopenta[a]phenanthrene-3,17-diol]
- IC50 (ovary (Ovcar-3)): 317 µM
- IC50 (Pancreas (Capan-1)): 277 µM
- IC50 (lung (A549)): 170 µM

Compound: CO[C@@H]1C[C@@H]2[C@H](CC[C@]3(C)C(O)CC[C@@H]23)c2ccc(O)cc21 (stereo partly drawn) [Compound 18, (6R,8R,9S,13S,14S)-6-methoxy-13-methyl-7,8,9,11,12,13,14,15,16,17-decahydro-6H-cyclopenta[a]phenanthrene-3,17-diol]
- IC50 (ovary (Ovcar-3)): 207 µM
- IC50 (Pancreas (Capan-1)): 192 µM
- IC50 (lung (A549)): 139 µM

Compound: COCC[C@@H]1C[C@@H]2[C@H](CC[C@]3(C)C(O)CC[C@@H]23)c2ccc(O)cc21 (stereo partly drawn) [Compound 19, (6S,8R,9S,13S,14S)-6-(2-methoxyethyl)-13-methyl-7,8,9,11,12,13,14,15,16,17-decahydro-6H-cyclopenta[a]phenanthrene-3,17-diol]
- IC50 (ovary (Ovcar-3)): 96 µM
- IC50 (Pancreas (Capan-1)): 32 µM
- IC50 (lung (A549)): 80 µM

Compound: COCCCC[C@@H]1C[C@@H]2[C@H](CC[C@]3(C)C(O)CC[C@@H]23)c2ccc(O)cc21 (stereo partly drawn) [Compound 20, (6R,8R,9S,13S,14S)-6-(4-methoxybutyl)-13-methyl-7,8,9,11,12,13,14,15,16,17-decahydro-6H-cyclopenta[a]phenanthrene-3,17-diol]
- IC50 (ovary (Ovcar-3)): 60 µM
- IC50 (Pancreas (Capan-1)): 16 µM
- IC50 (lung (A549)): 34 µM

Compound: COCCCCCC[C@@H]1C[C@@H]2[C@H](CC[C@]3(C)C(O)CC[C@@H]23)c2ccc(O)cc21 (stereo partly drawn) [Compound 21, (6R,8R,9S,13S,14S)-6-(6-methoxyhexyl)-13-methyl-7,8,9,11,12,13,14,15,16,17-decahydro-6H-cyclopenta[a]phenanthrene-3,17-diol]
- IC50 (ovary (Ovcar-3)): 24 µM
- IC50 (Pancreas (Capan-1)): 23 µM
- IC50 (lung (A549)): 17 µM

Compound: CCC(CCCCC[C@@H]1C[C@@H]2[C@H](CC[C@]3(C)C(O)CC[C@@H]23)c2ccc(O)cc21)OC (stereo partly drawn) [Compound 22, (6R,8R,9S,13S,14S)-6-(6-methoxyoctyl)-13-methyl-7,8,9,11,12,13,14,15,16,17-decahydro-6H-cyclopenta[a]phenanthrene-3,17-diol]
- IC50 (ovary (Ovcar-3)): 20 µM
- IC50 (Pancreas (Capan-1)): 22 µM
- IC50 (lung (A549)): 13 µM

Compound: CCCCCCCCCCCCCCCCCC(=O)OC1CC[C@H]2[C@@H]3C[C@@H](COC)c4cc(O)ccc4[C@H]3CC[C@]12C (stereo partly drawn) [Compound 23, (6R,8R,9S,13S,14S)-3-hydroxy-6-(methoxymethyl)-13-methyl-7,8,9,11,12,13,14,15,16,17-decahydro-6H-cyclopenta[a]phenanthren-17-yl stearate]
- IC50 (ovary (Ovcar-3)): > 1000 µM
- IC50 (Pancreas (Capan-1)): 775 µM
- IC50 (lung (A549)): > 1000 µM

Compound: COC[C@@H]1C[C@@H]2[C@H](CC[C@]3(C)C(=O)CC[C@@H]23)[C@@]2(C)C=CC(=O)C=C12 [Compound 24, (6R,8R,9S,10R,13S,14S)-6-(methoxymethyl)-10,13-dimethyl-7,8,9,10,11,12,13,14,15,16-decahydro-3H-cyclopenta[a]phenanthrene-3,17(6H)-dione]
- in vitro studies of tumor cell growth, by CYP19 status of the cell line [1]: highest in cell lines that are CYP19 positive

Compound: CCCOCCCC[C@@H]1C[C@@H]2[C@H](CC[C@]3(C)C(O)CC[C@@H]23)c2ccc(O)cc21 (stereo partly drawn) [Compound 30, (6R,8R,9S,13S,14S)-13-methyl-6-(4-propoxybutyl)-7,8,9,11,12,13,14,15,16,17-decahydro-6H-cyclopenta[a]phenanthrene-3,17-diol]
- IC50 (ovary (Ovcar-3)): 29 µM
- IC50 (Pancreas (Capan-1)): 10 µM
- IC50 (lung (A549)): 5 µM

Compound: CCOCCCCC[C@@H]1C[C@@H]2[C@H](CC[C@]3(C)C(O)CC[C@@H]23)c2ccc(O)cc21 (stereo partly drawn) [Compound 31, (6R,8R,9S,13S,14S)-13-methyl-6-(5-ethoxypentyl)-7,8,9,11,12,13,14,15,16,17-decahydro-6H-cyclopenta[a]phenanthrene-3,17-diol]
- IC50 (ovary (Ovcar-3)): 28 µM
- IC50 (Pancreas (Capan-1)): 15 µM
- IC50 (lung (A549)): 7 µM

— patent US10174070B2, “6-substituted estradiol derivatives and methods of use” (Endece LLC, priority 2005, dated 2019)
